pIC50: −log10 of the molar value.
Legend:
[1] = Solubility of the free acid; assay type: physicochemical
[2] = test system: mechanical allodynia in SNL rats; assay: Spinal nerve ligation (SNL) mono-neuropathic pain model; assay type: in vivo, rat; conditions: oral administration, dose-dependent
Experimental: The surgical procedure will be performed according to the method firstly described by Kim and Chung (Kim S H, Chung J M. Pain. 1992; 50(3):355-63.). This procedure will result in tactile allodynia in the left hindpaw. […] The dose-response anti-allodynia effects of test compound: on day 14 after surgery, rats were treated with test article at one of four doses, vehicle or positive control by oral gavage, and PWT was determined by calibrated von Frey filaments at time points of 0 (right before the drug dosing, Pre-Dose Baseline), 0.5, 1, 2, 4 and 6 hr. The anti-allodynia effects of repeated administration of test article: Administration of test article was started on day 7 after surgery, once a day for 7 days. PWT was determined by calibrated von Frey filaments, 2 hour after test article dosing each day. After 7 days dosing, the measurement were continued, every other day without compound dosing for another 7 days. PWT was determined at the time points as given above.

[3] = molecular target: TrkC (Homo sapiens, UniProt Q16288); assay: PathHunter live whole cell functional assay, NT3 stimulated TrkC activation; assay type: cell-based; conditions: triplicate
Sequence of TrkC (Q16288 32-839): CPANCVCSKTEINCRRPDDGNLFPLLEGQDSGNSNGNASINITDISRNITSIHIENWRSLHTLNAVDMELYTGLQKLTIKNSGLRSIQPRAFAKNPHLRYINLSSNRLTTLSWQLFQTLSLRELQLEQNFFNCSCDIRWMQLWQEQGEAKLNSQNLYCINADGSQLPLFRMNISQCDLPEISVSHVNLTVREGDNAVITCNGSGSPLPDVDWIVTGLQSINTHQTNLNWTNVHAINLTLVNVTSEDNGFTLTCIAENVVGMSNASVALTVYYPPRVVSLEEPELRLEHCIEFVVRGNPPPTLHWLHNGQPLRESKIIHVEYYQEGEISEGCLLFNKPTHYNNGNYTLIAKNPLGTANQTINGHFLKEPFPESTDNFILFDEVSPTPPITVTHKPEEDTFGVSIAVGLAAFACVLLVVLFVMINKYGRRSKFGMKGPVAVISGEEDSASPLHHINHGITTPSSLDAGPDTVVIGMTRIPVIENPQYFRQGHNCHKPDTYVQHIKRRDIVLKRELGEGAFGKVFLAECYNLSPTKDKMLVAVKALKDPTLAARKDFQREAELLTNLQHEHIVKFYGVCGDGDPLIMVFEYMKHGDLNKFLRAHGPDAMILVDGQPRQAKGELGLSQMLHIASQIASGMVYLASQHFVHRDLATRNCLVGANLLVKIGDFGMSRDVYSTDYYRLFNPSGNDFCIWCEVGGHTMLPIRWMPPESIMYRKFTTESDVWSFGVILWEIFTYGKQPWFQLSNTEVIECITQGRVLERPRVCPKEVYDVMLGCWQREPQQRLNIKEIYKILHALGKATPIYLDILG

[4] = molecular target: TrkB (Homo sapiens, UniProt Q16620); assay: PathHunter live whole cell functional assay, BDNF stimulated TrkB activation; assay type: cell-based; conditions: triplicate
Sequence of TrkB (Q16620 32-822): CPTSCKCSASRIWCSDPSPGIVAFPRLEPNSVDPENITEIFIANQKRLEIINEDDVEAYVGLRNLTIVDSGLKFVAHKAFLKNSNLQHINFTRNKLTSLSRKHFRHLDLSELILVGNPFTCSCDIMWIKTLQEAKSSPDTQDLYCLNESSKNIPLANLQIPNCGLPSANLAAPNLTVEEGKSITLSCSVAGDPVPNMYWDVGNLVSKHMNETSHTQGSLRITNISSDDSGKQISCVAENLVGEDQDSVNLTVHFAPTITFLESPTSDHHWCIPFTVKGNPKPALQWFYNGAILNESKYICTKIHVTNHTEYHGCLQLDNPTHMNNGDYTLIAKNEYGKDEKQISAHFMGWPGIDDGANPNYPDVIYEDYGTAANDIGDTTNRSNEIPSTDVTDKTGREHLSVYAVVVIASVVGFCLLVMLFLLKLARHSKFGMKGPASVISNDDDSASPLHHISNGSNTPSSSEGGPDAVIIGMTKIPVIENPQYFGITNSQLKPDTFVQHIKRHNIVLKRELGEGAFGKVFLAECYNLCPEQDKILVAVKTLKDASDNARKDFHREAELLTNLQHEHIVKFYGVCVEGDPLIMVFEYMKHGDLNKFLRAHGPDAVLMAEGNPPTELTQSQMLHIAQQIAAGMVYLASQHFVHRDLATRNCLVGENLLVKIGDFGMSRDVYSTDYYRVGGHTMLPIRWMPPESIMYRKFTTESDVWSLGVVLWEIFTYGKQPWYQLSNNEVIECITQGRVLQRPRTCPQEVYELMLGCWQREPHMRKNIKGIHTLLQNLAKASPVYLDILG

[5] = molecular target: T1, TrkA (human full length) (Homo sapiens, UniProt P04629); assay: PathHunter live whole cell functional assay, NGF stimulated TrkA activation; assay type: cell-based; conditions: U2OS cell background, mean of triplicate; read-out: cellular IC50, inhibition of NGF stimulated TrkA activation
T1 construct: expressed recombinantly on the intracellular C-terminus of TrkA (human full length); host or cells: U2OS
T1 sequence (P04629 33-796): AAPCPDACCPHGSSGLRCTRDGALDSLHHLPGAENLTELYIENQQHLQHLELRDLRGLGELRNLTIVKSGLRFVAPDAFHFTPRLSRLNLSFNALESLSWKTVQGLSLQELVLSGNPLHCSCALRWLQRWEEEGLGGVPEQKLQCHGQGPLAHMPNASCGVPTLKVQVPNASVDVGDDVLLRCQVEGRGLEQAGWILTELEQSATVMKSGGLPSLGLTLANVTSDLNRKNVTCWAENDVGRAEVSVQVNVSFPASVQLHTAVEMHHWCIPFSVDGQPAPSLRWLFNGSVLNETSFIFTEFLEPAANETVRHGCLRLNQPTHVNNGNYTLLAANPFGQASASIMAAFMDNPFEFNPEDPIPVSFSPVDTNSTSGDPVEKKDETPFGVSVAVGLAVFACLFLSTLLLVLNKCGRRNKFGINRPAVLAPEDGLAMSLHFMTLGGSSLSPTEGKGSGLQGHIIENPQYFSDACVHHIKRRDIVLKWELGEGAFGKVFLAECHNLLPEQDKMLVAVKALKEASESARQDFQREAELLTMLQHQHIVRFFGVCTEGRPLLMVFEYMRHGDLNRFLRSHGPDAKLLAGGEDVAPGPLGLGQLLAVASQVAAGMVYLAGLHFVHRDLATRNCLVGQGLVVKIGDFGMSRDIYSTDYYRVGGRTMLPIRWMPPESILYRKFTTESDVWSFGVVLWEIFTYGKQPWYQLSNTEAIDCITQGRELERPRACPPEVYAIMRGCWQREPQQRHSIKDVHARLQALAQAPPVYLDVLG
Text: There are several methods to measure whole length TrkA activation stimulated by its natural ligand or agonist NGF in live cells. For example, the PathHunter Profiling services offered by DiscoveRx (Fremont, Calif.). The PathHunter technology is an adaptation of enzyme fragment complementation that provides a novel, generic functional cell-based assay format for detecting protein-protein interactions. In this cell-based assay approach, with U2OS cell background, a small peptide epitope (PK) is expressed recombinantly on the intracellular C-terminus of TrkA (human full length). This is co-expressed with a larger sequence, termed enzyme acceptor (EA) that is attached to a cytoplasmic protein SHC1 which will interact with TrkA intracellularly. NGF induced activation of TrkA receptor causes either homo- or hetero-dimerization of TrkA resulting in cross-phosphorylation. The SHC1-EA fusion protein then binds the phosphorylated TrkA receptor forcing complementation of the PK and EA fragment. This interaction generates an active beta-galactosidase enzyme, which is detected using a chemiluminescent substrate.

[6] = test system: CFA-induced inflammatory pain; assay: Rat CFA-induced inflammatory pain model; assay type: in vivo; conditions: 50 μL of 1 mM s.c. into the paw 3 hours after CFA
Experimental: Hyperalgesia was induced by subcutaneously injecting 50 μL of CFA (Sigma-Aldrich, St. Louis, Mo., USA) into the plantar surface of the left hind paw of the rats using a 30-gauge hypodermic needle under sevoflurane anesthesia. The classical signs of inflammation, including edema and redness, for up the last day of tests were recorded. To assess the effect of test article on CFA-induced inflammatory pain, the rats were anesthetized with sevoflurane 3 hours after CFA injection and then injected 50 μL of either 1 mM test article (n=6) or Saline (n=4) subcutaneously (S.C.) into the same site as the CFA injection, using a 30-gauge hypodermic needle under sevoflurane anesthesia, according to published method (Ueda K., et al, J Pharmacol. Sci., 2010; 112(4):438-43). Paw withdrawal latencies (thermal hyperalgesia) are measured before and at […] 2, 4, and 7 days after CFA injection. Mechanical thresholds were also measured in the same way with either Formula 1 compound (n=6) or Saline (n=4) at similar different time points (for example, 1, 3 hour and 3 days). The noxious heat and mechanical thresholds were separately measured in each group of rats. The threshold was measured 3-5 times in each rat and then averaged. Stimulus interval was 5 min.

[7] = test system: mechanical allodynia in CCI rats; assay: Chronic constriction injury (CCI) model of neuropathic pain; assay type: in vivo, rat; conditions: for side effects observed in dosed CCI-rats (drowsiness, motor incoordination, other abnormality): single oral dose (gabapentin 100 mg/kg)
Text: The CCI model is one of the most commonly used mono-neuropathic pain model firstly described in details by Bennett and Xie (Bennett G J, Xie Y K. Pain. 1988; 33(1):87-107). It mimics important clinical chronic pain symptoms such as mechanical allodynia and thermal hyperalgesia. Chronic constriction injury of the sciatic nerve was produced by tying four loose ligatures around the left sciatic nerve according to the method of Bennett and Xie. […] Calibrated von Frey filaments were used to determine the lowest mechanical (tactile) threshold required to evoke a brisk paw withdrawal reflex in the rat hindpaws. Rats were allowed to acclimatize in wire mesh cages for 15-20 min prior to von Frey testing. Assessment of paw withdrawal thresholds (PWTs) using von Frey filaments was undertaken prior to CCI-surgery (pre-surgery baseline on day 0). Before the drug dosing on day 14, the pre-dose baseline was recorded for each rat. […] Drug-naïve CCI-rats (n=4-6 per group) were used. The oral (PO) gavage vehicle was either 10% (w/v) Povidone K25 in water for PO dosing, or 18% (w/v) CrosPovidone in water for PO dosing, or 0.5% CMC-Na/0.1% Tween 80 in distilled water for PO dosing. The positive control gabapentin was dissolved in the vehicle and orally given at 100 mg/kg (by oral gavage). Test article was dissolved or suspended in the vehicle and orally given at 25, 50, 100 and 150 mg/kg. Each CCI-rat was administered a single oral dose of test article, gabapentin or vehicle control, 2 hours before assessment of PWT.

[8] = test system: human pancreatic cancer cells (PANC-1); assay: Subcutaneous xenograft tumor mouse model; assay type: in vivo; conditions: oral 150 mg/kg, Day 7 postdose, p<0.02
[9] = test system: human stomach cancer cells NCI-N87; assay: Cell viability and proliferation assay (CellTiter-Glo), stomach cancer cells; assay type: cell-based; conditions: 24 h or 48 h or 96 h incubation
Experimental: (§1) To assess the chemosensitivity of tumor cells, cell viability is measured by CellTiter-Glo® Luminescent Cell Viability Assay (Promega; WI, USA) per the manufacturer's instruction. Briefly, […] to 7×10^5 cells/ml are cultured in sterile 96-well plates in the presence of increasing concentrations of the drugs (test article, 0 to 100 μM), or vehicle in RPMI medium. The plates are then incubated for 24 to 96 h, and then 100 μl of CellTiter-Glo reagent is added to lyse the cells. After a 10-min incubation at room temperature, the luminescence is recorded in a luminometer with an integration time of 1 s per well. The luminescence signals for the drug-treated cells are normalized by the luminescence signal obtained from vehicle-treated cells. As an alternative method to quantitate cell viability, the trypan blue exclusion dye method was used. Vehicle- or drug-treated cells were assayed by adding trypan blue solution (0.4% in phosphate-buffered saline [PBS]) to the culture medium. After 3 min, the number of dead cells that retained the dye is compared to the total number of cells to calculate cell viability. GraphPad Prism 5 software is used to calculate IC50 and plot effect-dose curve of drugs. Multiplate reader: EnVision 2104 (PerkinElmer). % of control variability=100*[(X(drug_treated)−L(baseline))/(H(vehicle_control)−L(baseline))]. […]

[10] = Accelerated stability tests by XRPD and Raman; assay type: physicochemical; conditions: over 1 week
Experimental: Approximately 2 mg of sample was gently compressed on the XRPD zero back ground single obliquely cut silica sample holder. The sample was then loaded into a D/MAX 2200 X-ray powder diffractometer (Rigaku) or a Philips X-Pert MPD diffractometer and analyzed using the following experimental conditions (Tube anode: Cu; Generator tension: 40 kV; Tube current: 40 mA; Wavelength alpha1: 1.54056 Å; Wavelength alpha2: 1.5444 Å; Start angle [2 theta]: 5; End angle [2 theta]: 50; and Continuous scan). For suspected novel forms a slightly slower scan speed was used over a range of […].
Samples were analyzed by a Nicolet Almega XR Dispersive Raman Microscope for its Raman spectrum using the following conditions (Exposure Time: 1.0 s; Acquisition No: 10; Pinhole Size: […]; Wavelength range: 2000˜300 cm^−1 (single grating); Laser: He—Ne 780 nm 100% power, Objective: 20×/0.40 or 50×/0.75 (magnifier/numerical aperture number)). Then the measured Raman spectra were corrected by baseline subtraction using the software OMNIC™ v7.3.

[11] = test system: human pancreatic cancer cells AsPC-1, MIA PaCa-2, BxPC-3, Capan-1 and Panc-1; assay: Cell viability and proliferation assay (CellTiter-Glo), pancreatic cancer cells; assay type: cell-based; conditions: 24 h or 48 h or 96 h incubation
Experimental: as §1

[12] = Rat pharmacokinetics (plasma and brain, LC-MS/MS); assay type: in vivo; conditions: PO, 100 mg/kg, mean
Experimental: Compound I was dosed to nonfasted male CD IGS rats (weighting 180-250 g, Charles River Laboratories) by single intravenous (IV, n=3/group) or oral gavage (PO, n=4/group, including control rat group for drug-free blood and brain collection) administration at a nominal dose levels of 3 mg/kg (IV) or 5 mg/kg (IV) and 10, 50, 100 mg/kg (PO) respectively. Compound was formulated in either DMSO/Solutol: HS 15/phosphate buffered saline, pH 7.4 (PBS) for both IV and PO dosing, or 10% (w/v) Povidone K12 in water for IV dosing or 10% (w/v) Povidone K25 in water for PO dosing, or 18% (w/v) CrosPovidone in water for PO dosing. An intravenous profile was obtained by taking serial or terminal blood samples at 3, 10, 30, 60, 120, 240, 360, 1440 min post dose. An oral profile was obtained by taking serial or terminal blood samples at 10, 30, 60, 120, 240, 360, 480, 1440 min post dose.
Plasma Sample Collection from Rats. Animals were sedated under general inhalant anesthesia (3% isoflurane) for blood collection by cardiac puncture. […]
Plasma and brain samples were subjected to quantitative analysis by LC-MS/MS using compound-specific mass transitions. […] The concentrations of the test compound in brain (ng/g brain tissue) and in plasma (ng/mL) as well as the ratio of the brain concentration and the plasma concentration at each time point were determined and reported.

[13] = test system: human liver cancer cells SK-HEP-1 and HepG2; assay: Cell viability and proliferation assay (CellTiter-Glo), liver cancer cells; assay type: cell-based; conditions: 24 h or 48 h or 96 h incubation
Experimental: as §1

SMILES	solubility [1]	reduction of mechanical allodynia (paw withdrawal threshold, von Frey) [2]	pIC50 [3]	pIC50 [4]	pIC50 [5]	analgesic effect (thermal and mechanical thresholds, FIG. 1) [6]	reduction of mechanical allodynia (paw withdrawal threshold, von Frey, FIG. 2) ([7]; single oral dose 25, 50, 100 and 150 mg/kg, 2 hours before assessment, dose-dependent)	side effects observed in dosed CCI-rats (drowsiness, motor incoordination, other abnormality) [7]	tumor volume reduction compared to vehicle treated group [8]	pIC50 [9]	solid-state stability by XRPD and Raman ([10]; 40° C./75% RH)	solid-state stability by XRPD and Raman ([10]; 80° C.)	pIC50 [11]	F [12]	pIC50 [13]
O=C(O)c1ccc(Nc2cc(N3CCN(C4CCCCC4)CC3)c3noc4c3c2C(=O)c2ccccc2-4)cc1 [Compound 701, 4-((3-(4-cyclohexylpiperazin-1-yl)-6-oxo-6H-anthra[1,9-cd]isoxazol-5-yl)amino)benzoic acid]	limited solubility	–	–	–	–	–	–	–	–	–	–	–	–	–	–
O=C([O-])c1ccc(Nc2cc(N3CCN(C4CCCCC4)CC3)c3noc4c3c2C(=O)c2ccccc2-4)cc1.[Na+] [Compound I, Sodium 4-((3-(4-cyclohexylpiperazin-1-yl)-6-oxo-6H-anthra[1,9-cd]isoxazol-5-yl)amino)benzoate]	–	significantly reduced mechanical allodynia	< 5.00	< 5.00	~7.30	efficacious in relieving the pain	significantly reduced mechanical allodynia	no such effect or other abnormality was observed	more than 21%	~5.15	no instability	no instability	5.30 to 5.70	~100%	5.10 to 5.70
NCC1(CC(=O)O)CCCCC1 [gabapentin, reference compound]	–	–	–	–	–	–	–	drowsiness or motor incoordination	–	–	–	–	–	–	–

From patent publication US10301271B2, “Crystalline forms of tyrosine kinase inhibitors and their salts” (PURDUE PHARMA L.P., priority 2014, dated 2019)
